Test results published in BindingDB's records for doi:10.1016/j.bmc.2010.08.049 (University of Wisconsin-Milwaukee, 2010).

Key:
[1] = molecular target: Gamma-aminobutyric acid receptor subunit alpha-6/beta-3/gamma-2 (Homo sapiens, UniProt Q16445+P18507+P28472); assay: Displacement of [3H]flunitrazepam from human recombinant GABAA alpha-6-beta-3-gamma-2 receptor expressed in HEK cells by liquid scintillation counting
[2] = molecular target: T1, GABA-A receptor; alpha-5/beta-3/gamma-2 (Homo sapiens, UniProt P31644+P18507+P28472); assay: Displacement of [3H]flunitrazepam from human recombinant GABAA alpha-5-beta-3-gamma-2 receptor expressed in HEK cells by liquid scintillation counting
T1 sequence (P31644 whole entry): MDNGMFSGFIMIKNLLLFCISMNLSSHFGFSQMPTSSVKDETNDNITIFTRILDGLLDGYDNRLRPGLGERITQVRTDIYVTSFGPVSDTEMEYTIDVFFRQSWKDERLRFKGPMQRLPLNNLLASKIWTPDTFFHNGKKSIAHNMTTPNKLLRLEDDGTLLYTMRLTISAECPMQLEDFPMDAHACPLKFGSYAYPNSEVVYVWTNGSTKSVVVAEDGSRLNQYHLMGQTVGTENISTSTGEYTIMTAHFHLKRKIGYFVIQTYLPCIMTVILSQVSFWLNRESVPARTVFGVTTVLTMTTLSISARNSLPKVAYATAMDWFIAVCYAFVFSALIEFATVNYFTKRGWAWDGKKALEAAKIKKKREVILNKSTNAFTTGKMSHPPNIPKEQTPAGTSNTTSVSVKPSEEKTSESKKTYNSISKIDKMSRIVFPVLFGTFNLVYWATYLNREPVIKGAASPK
T1 sequence (P18507 whole entry): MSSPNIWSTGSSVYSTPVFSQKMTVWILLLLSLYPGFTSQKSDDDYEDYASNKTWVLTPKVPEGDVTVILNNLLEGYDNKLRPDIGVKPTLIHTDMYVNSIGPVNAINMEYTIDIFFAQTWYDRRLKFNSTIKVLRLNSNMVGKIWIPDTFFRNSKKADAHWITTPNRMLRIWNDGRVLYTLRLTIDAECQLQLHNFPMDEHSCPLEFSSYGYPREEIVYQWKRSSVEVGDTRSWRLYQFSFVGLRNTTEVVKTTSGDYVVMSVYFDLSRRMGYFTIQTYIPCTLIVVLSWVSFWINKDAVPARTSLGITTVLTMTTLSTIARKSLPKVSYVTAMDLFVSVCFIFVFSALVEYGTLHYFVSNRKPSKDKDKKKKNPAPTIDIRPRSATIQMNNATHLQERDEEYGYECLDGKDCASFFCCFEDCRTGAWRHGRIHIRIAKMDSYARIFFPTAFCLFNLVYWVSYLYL
T1 sequence (P28472 whole entry): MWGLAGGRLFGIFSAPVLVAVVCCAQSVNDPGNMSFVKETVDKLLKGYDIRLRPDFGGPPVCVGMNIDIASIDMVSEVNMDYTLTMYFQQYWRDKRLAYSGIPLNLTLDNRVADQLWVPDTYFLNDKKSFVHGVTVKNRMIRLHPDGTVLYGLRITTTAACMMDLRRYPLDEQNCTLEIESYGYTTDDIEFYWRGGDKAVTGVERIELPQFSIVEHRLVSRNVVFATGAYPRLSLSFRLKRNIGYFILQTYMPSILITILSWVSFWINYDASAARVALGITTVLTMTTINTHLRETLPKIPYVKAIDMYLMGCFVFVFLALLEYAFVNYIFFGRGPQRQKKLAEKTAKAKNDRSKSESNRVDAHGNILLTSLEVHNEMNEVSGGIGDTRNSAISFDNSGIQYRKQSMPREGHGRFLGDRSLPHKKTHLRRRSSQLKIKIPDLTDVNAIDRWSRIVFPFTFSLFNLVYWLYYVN

[3] = molecular target: T2, GABA-A receptor; alpha-2/beta-3/gamma-2 (Homo sapiens, UniProt P47869+P18507+P28472); assay: Displacement of [3H]flunitrazepam from human recombinant GABAA alpha-2-beta-3-gamma-2 receptor expressed in HEK cells by liquid scintillation counting
T2 sequence (P47869 whole entry): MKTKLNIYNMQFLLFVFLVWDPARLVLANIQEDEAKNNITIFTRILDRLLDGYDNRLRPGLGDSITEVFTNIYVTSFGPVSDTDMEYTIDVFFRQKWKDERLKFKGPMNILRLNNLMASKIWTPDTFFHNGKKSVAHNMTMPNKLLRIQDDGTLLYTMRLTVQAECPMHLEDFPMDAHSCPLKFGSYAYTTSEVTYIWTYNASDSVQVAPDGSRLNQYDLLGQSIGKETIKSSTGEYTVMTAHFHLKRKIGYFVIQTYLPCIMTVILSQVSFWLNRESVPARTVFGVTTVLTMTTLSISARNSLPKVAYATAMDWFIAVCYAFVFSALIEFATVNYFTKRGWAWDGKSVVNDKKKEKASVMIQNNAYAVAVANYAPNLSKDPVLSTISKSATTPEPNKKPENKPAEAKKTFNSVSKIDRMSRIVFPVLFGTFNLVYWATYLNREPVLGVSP
T2 sequence (P18507 whole entry): T1 sequence (P18507 whole entry)
T2 sequence (P28472 whole entry): T1 sequence (P28472 whole entry)

[4] = molecular target: T3, Gamma-aminobutyric acid receptor subunit alpha-3/beta-3/gamma-2 (Homo sapiens, UniProt P34903+P18507+P28472); assay: Displacement of [3H]flunitrazepam from human recombinant GABAA alpha-3-beta-3-gamma-2 receptor expressed in HEK cells by liquid scintillation counting
T3 sequence (P34903 whole entry): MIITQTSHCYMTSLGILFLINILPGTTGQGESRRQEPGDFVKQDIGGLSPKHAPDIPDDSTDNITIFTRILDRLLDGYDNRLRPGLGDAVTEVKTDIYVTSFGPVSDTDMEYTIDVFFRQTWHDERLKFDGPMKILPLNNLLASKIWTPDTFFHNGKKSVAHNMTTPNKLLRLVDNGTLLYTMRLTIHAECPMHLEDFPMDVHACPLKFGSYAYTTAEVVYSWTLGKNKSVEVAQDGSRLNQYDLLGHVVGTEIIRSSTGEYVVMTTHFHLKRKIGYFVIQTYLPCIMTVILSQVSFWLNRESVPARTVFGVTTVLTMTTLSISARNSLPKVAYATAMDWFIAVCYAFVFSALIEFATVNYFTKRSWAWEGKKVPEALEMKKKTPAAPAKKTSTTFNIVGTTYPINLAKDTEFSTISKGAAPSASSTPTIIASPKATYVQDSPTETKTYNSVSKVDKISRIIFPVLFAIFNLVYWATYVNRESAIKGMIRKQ
T3 sequence (P18507 whole entry): T1 sequence (P18507 whole entry)
T3 sequence (P28472 whole entry): T1 sequence (P28472 whole entry)

[5] = molecular target: GABA A receptor alpha-4/beta-3/gamma-2 (Homo sapiens, UniProt P48169+P18507+P28472); assay: Displacement of [3H]flunitrazepam from human recombinant GABAA alpha-4-beta-3-gamma-2 receptor expressed in HEK cells by liquid scintillation counting
GABA A receptor alpha-4/beta-3/gamma-2, sequence (P48169 whole entry, one chain of several): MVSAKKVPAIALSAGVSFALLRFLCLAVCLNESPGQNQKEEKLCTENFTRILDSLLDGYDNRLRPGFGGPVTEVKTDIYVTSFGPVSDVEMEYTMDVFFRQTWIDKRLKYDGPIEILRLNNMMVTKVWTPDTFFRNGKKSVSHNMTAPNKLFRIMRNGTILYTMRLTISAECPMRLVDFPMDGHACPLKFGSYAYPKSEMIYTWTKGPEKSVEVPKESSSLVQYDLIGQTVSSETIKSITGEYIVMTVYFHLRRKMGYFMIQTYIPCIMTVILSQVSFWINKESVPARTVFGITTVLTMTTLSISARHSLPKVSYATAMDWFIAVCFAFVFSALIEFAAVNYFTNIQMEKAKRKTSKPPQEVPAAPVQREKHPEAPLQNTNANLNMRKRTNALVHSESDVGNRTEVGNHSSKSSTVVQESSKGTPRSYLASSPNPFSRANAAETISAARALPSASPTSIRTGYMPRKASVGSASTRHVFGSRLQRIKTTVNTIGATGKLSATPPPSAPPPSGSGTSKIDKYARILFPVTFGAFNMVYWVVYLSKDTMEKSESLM

Gamma-aminobutyric acid receptor subunit alpha-6/beta-3/gamma-2, sequence (Q16445 whole entry, one chain of several): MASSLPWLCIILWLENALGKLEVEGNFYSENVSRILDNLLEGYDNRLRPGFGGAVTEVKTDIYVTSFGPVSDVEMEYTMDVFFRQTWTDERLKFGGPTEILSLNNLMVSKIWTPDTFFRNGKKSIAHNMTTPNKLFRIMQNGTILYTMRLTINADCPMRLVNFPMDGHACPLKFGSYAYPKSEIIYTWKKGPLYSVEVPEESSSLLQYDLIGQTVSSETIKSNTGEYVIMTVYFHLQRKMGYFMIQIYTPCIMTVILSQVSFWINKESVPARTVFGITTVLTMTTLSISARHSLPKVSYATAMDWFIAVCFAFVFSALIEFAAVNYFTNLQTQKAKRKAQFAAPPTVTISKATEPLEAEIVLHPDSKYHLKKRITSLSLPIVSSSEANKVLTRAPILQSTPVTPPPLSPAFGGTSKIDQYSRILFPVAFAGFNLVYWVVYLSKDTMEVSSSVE

| Ki [1] [nM] | Ki [2] [µM] | Ki [5] [nM] | SMILES | Ki [3] [nM] | Ki [4] [nM] |
| --- | --- | --- | --- | --- | --- |
| 10000 |  |  | CC(C)COc1cc2c3ccccc3nc-2c[nH]1 |  |  |
| 3000 |  | 3000 | O=C(OC(C(F)(F)F)C(F)(F)F)c1cc2c(cn1)[nH]c1ccc(I)cc12 [1,1,1,3,3,3-hexafluoropropan-2-yl 6-iodo-9H-pyrido[3,4-b]indole-3-carboxylate] |  |  |
| 2000 |  | 1000 | O=C(OC(C(F)(F)F)C(F)(F)F)c1cc2c(cn1)[nH]c1ccccc12 [1,1,1,3,3,3-hexafluoropropan-2-yl 9H-pyrido[3,4-b]indole-3-carboxylate] |  |  |
| 5000 | 5 | 5000 | CC(C)(C)OC(=O)c1cc2c(cn1)[nH]c1ccc(C#CC#Cc3ccc4[nH]c5cnc(C(=O)OC(C)(C)C)cc5c4c3)cc12 [1,4-Bis(9H-beta-carboline-3-carboxylic acid tert-butyl ester)buta-1,3-diyne] |  |  |
| 3000 | 1 | 1000 | CC(OC(=O)c1cc2c(cn1)[nH]c1ccccc12)c1ccccc1 (stereo not given) [1-phenylethyl 9H-pyrido[3,4-b]indole-3-carboxylate] | 1000 | 1000 |
| 2000 |  | 1000 | O=C(OCC(Cl)(Cl)Cl)c1cc2c(cn1)[nH]c1ccccc12 [2,2,2-trichloroethyl 9H-pyrido[3,4-b]indole-3-carboxylate] |  |  |
| 2000 |  | 3000 | O=C(OCC(F)(F)F)c1cc2c(cn1)[nH]c1ccc(-c3ccco3)cc12 [2,2,2-trifluoroethyl 6-(furan-2-yl)-9H-pyrido[3,4-b]indole-3-carboxylate] |  |  |
| 2000 |  | 2000 | O=C(OCC(F)(F)F)c1cc2c(cn1)[nH]c1ccc(-c3ccccc3)cc12 [2,2,2-trifluoroethyl 6-phenyl-9H-pyrido[3,4-b]indole-3-carboxylate] |  |  |
| 3000 |  | 3000 | O=C(Oc1cc(F)c(F)cc1F)c1cc2c(cn1)[nH]c1ccccc12 [2,4,5-trifluorophenyl 9H-pyrido[3,4-b]indole-3-carboxylate] |  |  |
| 10000 | 10 |  | CC/C=C/C=C/Oc1cc2c(cn1)[nH]c1ccccc12 [3-(hexa-1,3-dienyloxy)-9H-pyrido[3,4-b]indole] |  |  |
| 5000 | 5 |  | C#Cc1ccc2c(c1)c1cc(C(=O)OC(C)(C)C)ncc1n2C(=O)OC(C)(C)C [di-tert-butyl 6-ethynyl-9H-pyrido[3,4-b]indole-3,9-dicarboxylate] |  |  |
| 1000 |  | 1000 | CCOC(=O)c1cc2c(cn1)[nH]c1ccc(I)cc12 [ethyl 6-iodo-9H-pyrido[3,4-b]indole-3-carboxylate] |  |  |
| 5000 |  |  | CC(C)(C)OC(=O)c1cc2c(cn1)[nH]c1ccc(-c3cccs3)cc12 [tert-butyl 6-(thiophen-2-yl)-9H-pyrido[3,4-b]indole-3-carboxylate] |  |  |

The next lines start with the compound.

| SMILES | Ki [1] [nM] | Ki [2] [µM] | Ki [5] [nM] | Ki [3] [nM] | Ki [4] [nM] |
| --- | --- | --- | --- | --- | --- |
| c1ccc(COc2cc3c4ccccc4nc-3c[nH]2)cc1 | 10000 | 10 |  | 3000 | 3000 |
| CC(C)(C)OC(=O)c1cc2c(cn1)[nH]c1ccccc12 |  |  | 1000 |  |  |
| O=C(OCC(F)(F)F)c1cc2c(cn1)[nH]c1ccc(-c3cccs3)cc12 [2,2,2-trifluoroethyl 6-(thiophen-2-yl)-9H-pyrido[3,4-b]indole-3-carboxylate] | 2000 |  | 2000 |  |  |
| C#Cc1ccc2[nH]c3cnc(C(=O)OCC(F)(F)F)cc3c2c1 [2,2,2-trifluoroethyl 6-ethynyl-9H-pyrido[3,4-b]indole-3-carboxylate] | 2000 |  | 2000 |  |  |
| O=C(OCC(F)(F)F)c1cc2c(cn1)[nH]c1ccc(I)cc12 [2,2,2-trifluoroethyl 6-iodo-9H-pyrido[3,4-b]indole-3-carboxylate] | 3000 |  | 2000 |  |  |
| CCOc1cc2c(cn1)[nH]c1ccccc12 [3-ethoxy-9H-pyrido[3,4-b]indole] | 1000 |  |  |  |  |
| CCCOc1cc2c(cn1)[nH]c1ccccc12 [3-propoxy-9H-pyrido[3,4-b]indole] |  |  | 1000 |  |  |
| CC(C)(C)OC(=O)c1cc2c(cn1)[nH]c1ccc(C#C[Si](C)(C)C)cc12 [6-Trimethylsilanylethynyl-9H-beta-carboline-3-carboxylic acid t-butyl ester] | 1000 |  |  |  |  |
| CCOC(=O)c1cc2c(cn1)[nH]c1ccc(C#C[Si](C)(C)C)cc12 [ethyl 6-((trimethylsilyl)ethynyl)-9H-pyrido[3,4-b]indole-3-carboxylate] | 2000 |  | 2000 |  |  |
| CC(C)(C)OC(=O)c1cc2c(cn1)[nH]c1ccc(-c3ccco3)cc12 [tert-butyl 6-(furan-2-yl)-9H-pyrido[3,4-b]indole-3-carboxylate] | 5000 |  |  |  |  |
| CC(C)(C)OC(=O)c1cc2c(cn1)[nH]c1ccc(F)cc12 [tert-butyl 6-fluoro-9H-pyrido[3,4-b]indole-3-carboxylate] | 1000 |  | 1000 |  |  |
| CC(C)(C)OC(=O)c1cc2c(cn1)[nH]c1ccc(-c3ccccc3)cc12 [tert-butyl 6-phenyl-9H-pyrido[3,4-b]indole-3-carboxylate] | 5000 |  |  |  |  |
| CC(C)(C)OC(=O)c1cc2c(cn1)[nH]c1ccc(C(C)(C)C)cc12 [tert-butyl 6-tert-butyl-9H-pyrido[3,4-b]indole-3-carboxylate] | 1000 |  | 1000 |  |  |
